From US11045457B2, “Piperidinyl-3-(aryloxy)propanamides and propanoates” (priority 2018, dated 2021)

Legend:
SSTR4 [1] = biological target: T1, SSTR4 (Homo sapiens (Human), UniProt P31391); assay: Inhibition of forskolin stimulated cAMP in CHO-K1 cells overexpressing SSTR4; type: cell-based; conditions: for EC50: read-out: SSTR4 Activity pEC50 (converted)
Procedure, shortened: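 Read-out is a HTRF LANCE Ultra cAMP competition using Eu-labelled streptavidin and biotin-cAMP, incubated 60 min at room temperature. It followed a 30 min room-temperature exposure of Kreb's Ringer-washed cells to compound plus forskolin. Potency is expressed as pEC50.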

SSTR4 [2] = biological target: T1, SSTR4; assay: SSTR4 I-125 somatostatin competition binding assay (membranes from CHO-K1 cells overexpressing SSTR4); conditions: competition with I-125 labeled somatostatin; for IC50: read-out: SSTR4 Binding pIC50 (converted)
Method: Membranes from CHO-K1 cells overexpressing SSTR4 are purchased from Perkin Elmer (catalog number ES-524-M400UA). Test compounds are suspended in DMSO and then diluted in assay buffer (25 mM HEPES pH 7.4, 10 mM MgCl2, 1 mM CaCl2), 0.5% BSA) plus 0.2 nM I-125 labeled somatostatin (Perkin Elmer catalog number NEX389). […] Then 1 μg of SSTR4 membranes in 50 μL assay buffer are added per well. The Plate is incubated for 60 minutes at room temperature. FilterMat A filters (Perkin Elmer catalog number 1450-421) are pre-soaked in 0.5% PEI (Sigma catalog number P3143). The contents of the assay plate are transferred to filters with a TomTech harvester and washed 5 times with 20 mM HEPES, 100 mM NaCl. The filters are dried in a microwave oven then transferred to sample bag containing a scintillator sheet (Perkin Elmer catalog number 1450-441). The scintillator sheets are melted to filters using a heat block. The filters are then read in a MicroBeta scintillation counter. Binding Ki curves are generated using Activity Base for Screening Data Management and the results are reported as pIC50.

SSTR1 = SSTR1 (Homo sapiens (Human), UniProt P30872); assay: SSTR1 I-125 somatostatin competition binding assay for selectivity versus SSTR4 (membranes from CHO-K1 cells overexpressing SSTR1); conditions: for SSTR1 Binding pIC50: competition with I-125 labeled somatostatin, CHO-K1 SSTR1 membranes;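 as to all read-outs here: Filter-based radioligand binding, bound label counted by scintillation after 60 min incubation at room temperature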
Sequence of SSTR1 (P30872 whole entry): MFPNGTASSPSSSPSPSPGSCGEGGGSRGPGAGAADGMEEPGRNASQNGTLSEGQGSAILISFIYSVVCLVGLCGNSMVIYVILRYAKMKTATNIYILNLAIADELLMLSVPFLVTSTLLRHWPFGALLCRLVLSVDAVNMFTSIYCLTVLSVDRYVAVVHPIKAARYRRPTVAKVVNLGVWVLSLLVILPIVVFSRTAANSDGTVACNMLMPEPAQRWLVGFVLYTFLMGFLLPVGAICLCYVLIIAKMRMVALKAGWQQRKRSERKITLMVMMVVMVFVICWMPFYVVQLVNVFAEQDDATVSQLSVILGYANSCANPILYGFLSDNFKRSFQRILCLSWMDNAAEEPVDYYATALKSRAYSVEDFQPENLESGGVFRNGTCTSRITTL

T1 sequence (P31391 whole entry): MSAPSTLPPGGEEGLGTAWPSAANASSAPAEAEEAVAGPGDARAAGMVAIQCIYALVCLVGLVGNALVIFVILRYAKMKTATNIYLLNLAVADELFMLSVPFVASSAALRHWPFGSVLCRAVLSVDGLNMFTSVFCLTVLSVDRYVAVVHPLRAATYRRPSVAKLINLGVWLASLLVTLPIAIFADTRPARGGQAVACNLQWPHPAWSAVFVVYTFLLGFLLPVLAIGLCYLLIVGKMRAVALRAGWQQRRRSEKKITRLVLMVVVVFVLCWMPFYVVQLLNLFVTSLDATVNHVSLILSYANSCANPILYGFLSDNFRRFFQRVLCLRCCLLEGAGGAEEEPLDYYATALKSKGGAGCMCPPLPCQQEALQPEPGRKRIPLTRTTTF

Row | EC50 (SSTR4 [1]) [nM] | IC50 (SSTR4 [2]) [nM] | IC50 (SSTR1) [µM] | SMILES | SSTR4 Activity pEC50 (SSTR4 [1]) | SSTR4 Binding pIC50 (SSTR4 [2]) | SSTR1 Binding pIC50 (SSTR1)
1 |  |  |  | CC(C)[C@@H]1CN(C)C[C@H]1NC(=O)C(C)(C)COc1ncccc1OC(F)(F)F (relative stereo) [Example 16, trans-N-(4-isopropyl-1-methylpyrrolidin-3-yl)-2,2-dimethyl-3-((3-(trifluoromethoxy)pyridin-2-yl)oxy)propanamide] | 7.8 | 7.2 | 5.5
2 |  |  |  | C[C@@H]1C[C@H](NC(=O)C(C)(C)COc2ncccc2OC(F)(F)F)CCN1C [Example 179, N-((2R,4R)-1,2-dimethylpiperidin-4-yl)-2,2-dimethyl-3-((3-(trifluoromethoxy)pyridin-2-yl)oxy)propanamide] | 8.1 | 7.4 | 4.8
3 |  |  |  | CN1CCC(NC(=O)C(C)(C)COc2ccccc2Br)CC1 [Example 67, 3-(2-bromophenoxy)-2,2-dimethyl-N-(1-methylpiperidin-4-yl)propanamide] | 8.1 | 7.4 | 5.1
4 | 31.6 | 158 | 5.01 | C[C@@H]1CN(C)C[C@H]1NC(=O)C(C)(C)COc1ncccc1C(F)(F)F (racemic) [Example 165, N-(trans-1,4-dimethylpyrrolidin-3-yl)-2,2-dimethyl-3-((3-(trifluoromethyl)pyridin-2-yl)oxy)propanamide] |  |  | 
5 |  |  |  | CN1CC(NC(=O)C(C)(C)COc2ncccc2C(F)(F)F)C2(CC2)C1 (stereo not drawn) [Example 138, 2,2-dimethyl-N-(5-methyl-5-azaspiro[2.4]heptan-7-yl)-3-((3-(trifluoromethyl)pyridin-2-yl)oxy)propanamide] | 8.0 | 7.2 | 5.7
6 | 12.6 | 2000 | 39.8 | Cc1ncccc1[C@@H]1CNCC[C@H]1N(C)C(=O)C(C)(C)COc1ncccc1C(F)(F)F (racemic) [Example 172, N,2,2-trimethyl-N-(trans-3-(2-methylpyridin-3-yl)piperidin-4-yl)-3-((3-(trifluoromethyl)pyridin-2-yl)oxy)propanamide] |  |  | 
7 |  |  |  | Cc1ccccc1OCC(C)(C)C(=O)NC1CCN(C)CC1 [Example 76, 2,2-dimethyl-N-(1-methylpiperidin-4-yl)-3-(o-tolyloxy)propanamide] | 7.7 | 6.7 | 4.7
8 |  |  |  | Cc1c([C@@H]2CN(C)C[C@H]2NC(=O)C(C)(C)COc2ncccc2C(F)(F)F)cnn1C (relative stereo) [Example 28, trans-N-(4-(1,5-dimethyl-1H-pyrazol-4-yl)-1-methylpyrrolidin-3-yl)-2,2-dimethyl-3-((3-(trifluoromethyl)pyridin-2-yl)oxy)propanamide] | 8.8 | 7.7 | 6.8
9 |  |  |  | CN1CC[C@H](NC(=O)C(C)(C)COc2ncccc2C2CC2)[C@@H](F)C1 [Example 123, 3-((3-cyclopropylpyridin-2-yl)oxy)-N-((3S,4S)-3-fluoro-1-methylpiperidin-4-yl)-2,2-dimethylpropanamide] | 7.8 | 7.2 | 4.9
10 |  |  |  | C[C@H]1CNCC[C@@H]1NC(=O)C(F)(F)COc1ncccc1C(F)(F)F [Example 208, 2,2-difluoro-N-((3S,4S)-3-methylpiperidin-4-yl)-3-((3-(trifluoromethyl)pyridin-2-yl)oxy)propanamide] | 8.6 | 7.1 | 4.4
11 |  |  |  | C[C@@H]1C[C@H](NC(=O)C(F)(F)COc2ncccc2C2CC2)CCN1 [Example 211, 3-((3-cyclopropylpyridin-2-yl)oxy)-2,2-difluoro-N-((2R,4R)-2-methylpiperidin-4-yl)propanamide] | 8.9 | 7.2 | 4.8
12 |  |  |  | C[C@@H]1C[C@H](NC(=O)C(F)(F)COc2ncccc2C2CC2)CCN1C [Example 194, 3-((3-cyclopropylpyridin-2-yl)oxy)-N-((2R,4R)-1,2-dimethylpiperidin-4-yl)-2,2-difluoropropanamide] | 8.4 | 7.7 | 4.4
13 |  |  |  | Cc1cccnc1OCC(C)(C)C(=O)N[C@@H]1CN(C)C[C@H]1c1cnn(C)c1C (relative stereo) [Example 26, trans-N-(4-(1,5-dimethyl-1H-pyrazol-4-yl)-1-methylpyrrolidin-3-yl)-2,2-dimethyl-3-((3-methylpyridin-2-yl)oxy)propanamide] | 8.6 | 7.3 | 6.1
14 |  |  |  | CN1CCC(NC(=O)C(C)(C)COc2ncccc2C(F)(F)F)CC1 [Example 41, 2,2-dimethyl-N-(1-methylpiperidin-4-yl)-3-((3-(trifluoromethyl)pyridin-2-yl)oxy)propanamide] | 7.4 | 6.4 | 4.2
